Data reported in publication PMC9680877 (ACS Chemical Biology, 2022).

How the values were obtained:
Format in all cases: binding
TRIM11 = target: T1, TRIM11 (Homo sapiens, UniProt Q96F44); assay: dose-response competition pulldown with MS readout
T1 sequence (Q96F44 1-468): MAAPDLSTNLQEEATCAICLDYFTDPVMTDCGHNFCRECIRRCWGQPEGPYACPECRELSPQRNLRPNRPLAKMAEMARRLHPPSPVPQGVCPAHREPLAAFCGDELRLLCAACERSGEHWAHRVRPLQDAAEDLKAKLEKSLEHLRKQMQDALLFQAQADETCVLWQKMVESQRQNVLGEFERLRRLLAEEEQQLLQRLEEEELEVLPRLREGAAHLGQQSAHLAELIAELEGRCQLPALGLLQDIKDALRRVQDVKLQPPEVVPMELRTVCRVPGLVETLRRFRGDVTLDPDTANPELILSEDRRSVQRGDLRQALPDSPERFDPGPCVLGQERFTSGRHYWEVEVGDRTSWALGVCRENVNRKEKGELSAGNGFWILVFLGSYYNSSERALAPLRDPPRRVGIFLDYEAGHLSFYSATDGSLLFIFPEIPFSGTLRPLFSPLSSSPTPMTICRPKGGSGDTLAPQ

MED15 = target: T2, MED15 (Homo sapiens, UniProt Q96RN5); assay: dose-response competition pulldown with MS readout
T2 sequence (Q96RN5 1-788): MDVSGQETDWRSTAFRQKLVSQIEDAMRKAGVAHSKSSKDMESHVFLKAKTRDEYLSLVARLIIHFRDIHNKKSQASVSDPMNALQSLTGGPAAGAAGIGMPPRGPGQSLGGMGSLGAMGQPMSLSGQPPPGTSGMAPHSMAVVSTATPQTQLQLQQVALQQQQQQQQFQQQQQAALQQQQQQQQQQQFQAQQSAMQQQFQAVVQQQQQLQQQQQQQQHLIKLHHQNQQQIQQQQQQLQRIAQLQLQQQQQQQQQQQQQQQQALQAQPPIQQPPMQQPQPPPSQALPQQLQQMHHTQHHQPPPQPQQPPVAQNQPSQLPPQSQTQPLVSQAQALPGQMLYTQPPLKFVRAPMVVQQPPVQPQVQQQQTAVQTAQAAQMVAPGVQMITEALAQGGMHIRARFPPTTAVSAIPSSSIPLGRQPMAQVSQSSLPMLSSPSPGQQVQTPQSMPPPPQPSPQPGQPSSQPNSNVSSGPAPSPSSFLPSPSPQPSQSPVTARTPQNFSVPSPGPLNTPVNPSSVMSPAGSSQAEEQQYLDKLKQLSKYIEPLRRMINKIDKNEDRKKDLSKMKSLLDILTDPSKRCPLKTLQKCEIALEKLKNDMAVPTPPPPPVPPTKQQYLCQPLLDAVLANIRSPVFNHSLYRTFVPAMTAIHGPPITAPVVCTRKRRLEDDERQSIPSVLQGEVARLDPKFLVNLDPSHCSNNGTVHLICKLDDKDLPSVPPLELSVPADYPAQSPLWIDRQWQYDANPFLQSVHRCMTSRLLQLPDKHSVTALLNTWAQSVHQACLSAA

GATA1 = GATA1 (Homo sapiens, UniProt P15976); assay: dose-response competition pulldown with MS readout
UBAP2L = target: T3, UBAP2L (Homo sapiens, UniProt Q14157); assay: dose-response competition pulldown with MS readout
T3 sequence (Q14157 1-1087): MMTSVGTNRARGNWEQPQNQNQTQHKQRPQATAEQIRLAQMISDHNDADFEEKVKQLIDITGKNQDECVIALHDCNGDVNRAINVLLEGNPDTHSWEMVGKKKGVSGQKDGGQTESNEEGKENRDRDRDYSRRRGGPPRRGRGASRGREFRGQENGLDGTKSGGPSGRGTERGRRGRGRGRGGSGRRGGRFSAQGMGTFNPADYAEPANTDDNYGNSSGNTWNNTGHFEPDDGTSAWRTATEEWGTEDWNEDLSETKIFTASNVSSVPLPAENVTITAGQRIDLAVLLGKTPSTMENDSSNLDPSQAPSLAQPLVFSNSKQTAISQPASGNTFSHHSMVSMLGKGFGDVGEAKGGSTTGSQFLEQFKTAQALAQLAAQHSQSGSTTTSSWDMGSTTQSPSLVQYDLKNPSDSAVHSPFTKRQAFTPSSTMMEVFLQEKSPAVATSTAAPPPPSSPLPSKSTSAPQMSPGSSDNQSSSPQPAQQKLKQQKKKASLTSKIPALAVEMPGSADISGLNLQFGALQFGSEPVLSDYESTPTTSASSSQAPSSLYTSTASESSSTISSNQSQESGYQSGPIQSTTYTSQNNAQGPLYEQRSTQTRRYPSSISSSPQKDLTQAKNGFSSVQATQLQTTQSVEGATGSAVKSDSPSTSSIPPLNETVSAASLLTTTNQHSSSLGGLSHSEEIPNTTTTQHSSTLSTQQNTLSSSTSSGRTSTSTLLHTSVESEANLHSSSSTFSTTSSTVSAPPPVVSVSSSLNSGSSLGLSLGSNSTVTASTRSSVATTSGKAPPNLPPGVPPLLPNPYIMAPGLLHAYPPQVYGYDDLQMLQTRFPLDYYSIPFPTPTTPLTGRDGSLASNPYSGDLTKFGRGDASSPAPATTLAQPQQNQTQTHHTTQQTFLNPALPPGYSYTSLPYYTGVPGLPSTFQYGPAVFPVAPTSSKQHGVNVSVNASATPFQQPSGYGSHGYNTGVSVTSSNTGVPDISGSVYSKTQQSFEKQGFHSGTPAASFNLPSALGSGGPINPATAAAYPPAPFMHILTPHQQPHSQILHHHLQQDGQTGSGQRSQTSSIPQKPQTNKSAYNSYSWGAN

TCF3 = target: T4, TCF3 (Homo sapiens, UniProt P15923); assay: dose-response competition pulldown with MS readout
T4 sequence (P15923 1-654): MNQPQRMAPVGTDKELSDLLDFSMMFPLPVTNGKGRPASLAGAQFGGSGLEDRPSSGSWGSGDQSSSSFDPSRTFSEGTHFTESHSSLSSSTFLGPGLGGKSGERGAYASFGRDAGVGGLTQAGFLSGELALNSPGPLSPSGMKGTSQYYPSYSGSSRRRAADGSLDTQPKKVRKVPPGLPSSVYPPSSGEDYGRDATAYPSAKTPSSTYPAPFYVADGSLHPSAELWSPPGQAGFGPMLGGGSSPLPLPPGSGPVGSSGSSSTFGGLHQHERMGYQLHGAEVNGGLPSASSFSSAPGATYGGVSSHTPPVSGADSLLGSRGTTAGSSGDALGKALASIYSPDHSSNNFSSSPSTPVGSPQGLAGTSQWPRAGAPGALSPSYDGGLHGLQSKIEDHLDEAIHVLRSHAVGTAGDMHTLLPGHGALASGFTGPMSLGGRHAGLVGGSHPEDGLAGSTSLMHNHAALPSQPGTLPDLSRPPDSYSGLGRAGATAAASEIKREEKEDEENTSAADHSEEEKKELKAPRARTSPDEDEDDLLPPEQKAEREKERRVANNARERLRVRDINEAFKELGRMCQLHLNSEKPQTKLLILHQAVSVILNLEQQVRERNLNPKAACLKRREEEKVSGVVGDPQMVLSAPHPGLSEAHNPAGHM

GATA2 = target: T5, GATA2 (Homo sapiens, UniProt P23769); assay: dose-response competition pulldown with MS readout
T5 sequence (P23769 1-480): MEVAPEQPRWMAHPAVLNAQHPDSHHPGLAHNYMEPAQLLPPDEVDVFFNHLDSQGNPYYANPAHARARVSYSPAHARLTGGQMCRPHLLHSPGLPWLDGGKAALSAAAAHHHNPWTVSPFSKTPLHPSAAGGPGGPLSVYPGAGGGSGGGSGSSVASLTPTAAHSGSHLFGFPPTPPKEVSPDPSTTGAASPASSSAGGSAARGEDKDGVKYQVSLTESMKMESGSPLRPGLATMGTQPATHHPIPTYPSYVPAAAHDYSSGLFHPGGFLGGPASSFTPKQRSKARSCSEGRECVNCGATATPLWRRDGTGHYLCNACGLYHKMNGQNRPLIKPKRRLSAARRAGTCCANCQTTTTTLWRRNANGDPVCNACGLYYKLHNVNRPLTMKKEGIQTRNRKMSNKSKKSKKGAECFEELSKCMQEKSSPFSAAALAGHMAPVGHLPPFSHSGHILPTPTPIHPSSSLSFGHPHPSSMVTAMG

OTUD4 = target: T6, OTUD4 (Homo sapiens, UniProt Q01804); assay: dose-response competition pulldown with MS readout
T6 sequence (Q01804 1-1114): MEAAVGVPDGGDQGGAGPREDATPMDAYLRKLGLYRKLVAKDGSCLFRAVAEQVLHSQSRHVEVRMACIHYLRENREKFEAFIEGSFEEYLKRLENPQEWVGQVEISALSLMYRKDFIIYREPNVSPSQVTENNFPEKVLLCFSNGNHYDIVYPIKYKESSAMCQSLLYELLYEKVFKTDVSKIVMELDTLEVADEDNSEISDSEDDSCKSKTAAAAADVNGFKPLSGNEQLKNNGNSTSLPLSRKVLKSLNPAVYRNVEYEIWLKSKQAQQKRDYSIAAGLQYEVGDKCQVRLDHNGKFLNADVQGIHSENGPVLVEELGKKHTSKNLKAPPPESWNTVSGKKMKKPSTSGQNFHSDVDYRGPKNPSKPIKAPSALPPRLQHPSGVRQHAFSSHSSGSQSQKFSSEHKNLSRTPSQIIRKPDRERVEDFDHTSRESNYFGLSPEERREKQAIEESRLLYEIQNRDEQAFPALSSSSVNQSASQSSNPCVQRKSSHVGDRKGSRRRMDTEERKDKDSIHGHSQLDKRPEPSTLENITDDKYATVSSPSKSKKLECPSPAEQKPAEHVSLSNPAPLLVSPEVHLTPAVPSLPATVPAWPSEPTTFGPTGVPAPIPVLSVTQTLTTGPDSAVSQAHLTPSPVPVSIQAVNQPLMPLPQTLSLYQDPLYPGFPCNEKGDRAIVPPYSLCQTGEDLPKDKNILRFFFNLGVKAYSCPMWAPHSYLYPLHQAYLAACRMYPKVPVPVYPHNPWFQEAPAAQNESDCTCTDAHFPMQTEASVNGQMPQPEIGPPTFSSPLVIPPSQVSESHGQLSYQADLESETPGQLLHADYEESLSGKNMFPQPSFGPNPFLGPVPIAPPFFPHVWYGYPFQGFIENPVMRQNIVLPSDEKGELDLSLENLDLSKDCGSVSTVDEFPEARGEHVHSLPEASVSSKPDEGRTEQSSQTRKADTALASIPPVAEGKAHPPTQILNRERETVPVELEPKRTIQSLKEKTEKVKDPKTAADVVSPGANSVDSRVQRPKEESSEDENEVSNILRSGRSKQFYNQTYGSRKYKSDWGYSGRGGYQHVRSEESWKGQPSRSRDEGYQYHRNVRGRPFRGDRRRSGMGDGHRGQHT

CNOT1 = CNOT1 (Homo sapiens, UniProt A5YKK6); assay: dose-response competition pulldown with MS readout; details: SW-620 lysate; free FAD vs photo-immobilized FAD beads
kinases = assay: Kinobeads profiling; details: latest version of Kinobeads, without immobilized staurosporine

Chain of CNOT1 (A5YKK6 whole entry): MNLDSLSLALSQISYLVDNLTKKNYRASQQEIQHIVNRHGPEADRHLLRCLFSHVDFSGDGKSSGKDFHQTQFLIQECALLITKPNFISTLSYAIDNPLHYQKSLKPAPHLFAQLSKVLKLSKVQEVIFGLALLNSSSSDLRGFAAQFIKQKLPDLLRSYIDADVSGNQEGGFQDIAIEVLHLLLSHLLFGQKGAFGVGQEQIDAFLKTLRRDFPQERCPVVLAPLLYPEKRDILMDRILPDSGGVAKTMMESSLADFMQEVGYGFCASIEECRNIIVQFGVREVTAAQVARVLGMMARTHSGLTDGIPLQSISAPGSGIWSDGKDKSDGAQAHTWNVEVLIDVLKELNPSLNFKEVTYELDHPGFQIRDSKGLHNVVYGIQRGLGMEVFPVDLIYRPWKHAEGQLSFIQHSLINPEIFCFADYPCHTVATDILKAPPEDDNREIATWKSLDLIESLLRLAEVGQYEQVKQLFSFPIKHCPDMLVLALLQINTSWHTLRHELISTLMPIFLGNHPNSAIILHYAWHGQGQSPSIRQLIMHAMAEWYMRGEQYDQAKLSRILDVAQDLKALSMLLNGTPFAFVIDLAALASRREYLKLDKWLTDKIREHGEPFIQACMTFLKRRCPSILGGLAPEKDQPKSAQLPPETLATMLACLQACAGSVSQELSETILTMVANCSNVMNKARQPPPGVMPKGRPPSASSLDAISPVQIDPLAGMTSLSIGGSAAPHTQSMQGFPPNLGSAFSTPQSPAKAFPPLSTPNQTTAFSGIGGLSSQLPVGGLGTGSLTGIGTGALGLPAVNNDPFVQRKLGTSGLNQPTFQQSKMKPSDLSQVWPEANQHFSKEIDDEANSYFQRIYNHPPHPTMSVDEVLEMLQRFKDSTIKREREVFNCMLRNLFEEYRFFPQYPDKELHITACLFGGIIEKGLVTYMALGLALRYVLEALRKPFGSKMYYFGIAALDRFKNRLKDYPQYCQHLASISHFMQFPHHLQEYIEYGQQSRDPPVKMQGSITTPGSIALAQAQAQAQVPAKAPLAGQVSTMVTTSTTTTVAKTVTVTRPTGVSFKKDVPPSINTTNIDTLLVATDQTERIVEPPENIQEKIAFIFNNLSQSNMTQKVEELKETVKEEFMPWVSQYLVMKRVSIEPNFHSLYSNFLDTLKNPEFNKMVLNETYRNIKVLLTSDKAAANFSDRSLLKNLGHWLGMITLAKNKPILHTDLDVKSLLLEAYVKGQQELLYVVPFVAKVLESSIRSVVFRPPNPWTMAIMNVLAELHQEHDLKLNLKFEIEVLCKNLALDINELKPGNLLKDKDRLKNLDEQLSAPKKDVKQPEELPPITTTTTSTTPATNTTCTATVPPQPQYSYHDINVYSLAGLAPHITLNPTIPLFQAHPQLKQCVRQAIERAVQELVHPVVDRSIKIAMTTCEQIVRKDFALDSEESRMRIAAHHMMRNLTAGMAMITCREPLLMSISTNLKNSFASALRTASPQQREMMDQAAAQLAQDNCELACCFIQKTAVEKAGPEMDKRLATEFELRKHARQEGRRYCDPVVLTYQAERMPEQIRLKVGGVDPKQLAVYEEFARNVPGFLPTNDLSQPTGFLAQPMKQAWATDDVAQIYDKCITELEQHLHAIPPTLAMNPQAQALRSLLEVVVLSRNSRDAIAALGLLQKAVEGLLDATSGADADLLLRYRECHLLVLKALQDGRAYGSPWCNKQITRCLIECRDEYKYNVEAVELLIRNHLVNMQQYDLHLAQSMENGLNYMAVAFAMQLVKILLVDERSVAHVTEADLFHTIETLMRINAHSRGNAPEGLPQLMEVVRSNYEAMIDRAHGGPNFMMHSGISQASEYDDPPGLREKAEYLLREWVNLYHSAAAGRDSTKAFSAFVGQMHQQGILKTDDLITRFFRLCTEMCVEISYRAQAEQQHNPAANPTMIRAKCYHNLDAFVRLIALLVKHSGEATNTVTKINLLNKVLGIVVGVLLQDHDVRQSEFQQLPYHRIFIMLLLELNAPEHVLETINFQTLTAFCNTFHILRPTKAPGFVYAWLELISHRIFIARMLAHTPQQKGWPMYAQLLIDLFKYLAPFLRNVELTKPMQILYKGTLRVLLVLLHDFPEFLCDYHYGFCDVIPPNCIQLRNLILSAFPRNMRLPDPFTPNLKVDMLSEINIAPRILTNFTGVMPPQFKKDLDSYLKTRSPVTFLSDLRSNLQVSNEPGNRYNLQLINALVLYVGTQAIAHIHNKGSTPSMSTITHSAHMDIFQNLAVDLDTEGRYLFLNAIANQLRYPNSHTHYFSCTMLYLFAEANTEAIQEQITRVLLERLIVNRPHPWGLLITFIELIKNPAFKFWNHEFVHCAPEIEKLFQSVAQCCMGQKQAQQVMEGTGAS
Chain of GATA1 (P15976 whole entry): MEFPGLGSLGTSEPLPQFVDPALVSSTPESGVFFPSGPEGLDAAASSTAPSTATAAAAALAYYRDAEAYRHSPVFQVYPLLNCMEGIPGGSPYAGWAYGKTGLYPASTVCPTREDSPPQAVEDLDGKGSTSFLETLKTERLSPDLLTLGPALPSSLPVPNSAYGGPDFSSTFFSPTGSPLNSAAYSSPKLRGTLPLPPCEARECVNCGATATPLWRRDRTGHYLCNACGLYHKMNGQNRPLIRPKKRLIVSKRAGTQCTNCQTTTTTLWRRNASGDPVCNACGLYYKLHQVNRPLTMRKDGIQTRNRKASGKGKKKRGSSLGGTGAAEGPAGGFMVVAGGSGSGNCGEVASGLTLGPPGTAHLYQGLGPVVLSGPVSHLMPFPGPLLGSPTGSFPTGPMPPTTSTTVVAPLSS

Kd (TRIM11) [nM]	Kd (MED15) [nM]	Kd (GATA1) [nM]	Kd (UBAP2L) [nM]	Kd (TCF3) [nM]	Kd (GATA2) [nM]	Kd (OTUD4) [nM]	CNOT1 bound by the matrix but not competed up to (CNOT1) [µM]	SMILES	number of kinase targets with affinities below 10 μM (kinases)
186	14	20	36	78	7	11	> 100	Cc1cc2nc3c(=O)[nH]c(=O)nc-3n(C[C@H](O)[C@H](O)[C@H](O)COP(=O)(O)OP(=O)(O)OC[C@H]3O[C@@H](n4cnc5c(N)ncnc54)[C@H](O)[C@@H]3O)c2cc1C [FAD, flavin adenine dinucleotide]	
								CN[C@@H]1C[C@H]2O[C@@](C)([C@@H]1OC)n1c3ccccc3c3c4c(c5c6ccccc6n2c5c31)C(=O)NC4 [Staurosporine]	94
